Test results: US8476256B2, “Diazonamide analogs” (Joyant Pharmaceuticals, Inc., priority 2008, dated 2013)

How the values were obtained:
[1] = test system: A2058 (human melanoma) cell line; assay: Cell viability assay (CELL-TITER-GLO), A2058; type: cell-based; conditions: A2058 cells, 48 hour treatment, 1 nM to 1 μM
Protocol: (§1) Cell viability assays were run using standard protocols known to those of skill in art. Cells were plated in 96 well plates at the density of 3,000-10,000 cells per well. Twenty four hours later, cells were treated with increasing concentration of test compounds (1 nM to 1 μM). After another 48 hour, cell survival was measured using CELL-TITER-GLO® reagent (Promega) following the protocol provided by the manufacture. The IC50 value was determined as the concentration of test compound that kills 50% of the cell population.
(§2) Cell viability data generated according to the protocol described herein was generated for representative compounds in the A2058 (human melanoma) and U937 (human leukemic monocyte lymphoma) cell lines. The compound of Example 16 (“Compound J”) was used as a reference compound.

[2] = test system: U937 (human leukemic monocyte lymphoma) cell line; assay: Cell viability assay (CELL-TITER-GLO), U937; type: cell-based; conditions: U-937, U937 cells, 48 hour treatment, 1 nM to 1 μM
Protocol: as §1, §2

[3] = test system: MDA-MB231 tumor cell line (Breast); assay: Cell profiling, MDA-MB231; type: cell-based; conditions: Homo sapiens, MDA-MB-231
Protocol: as §1

[4] = test system: MDA-MB435 tumor cell line (Breast); assay: Cell profiling, MDA-MB435; type: cell-based; conditions: Homo sapiens, MDA-MB-435
Protocol: as §1

[5] = test system: Colo205 tumor cell line (Colon); assay: Cell profiling, Colo205; type: cell-based; conditions: Homo sapiens, COLO 205
Protocol: as §1

[6] = test system: DLD-1 tumor cell line (Colon); assay: Cell profiling, DLD-1; type: cell-based; conditions: Homo sapiens; DLD-1, Colon
Protocol: as §1

[7] = test system: HT29 tumor cell line (Colon); assay: Cell profiling, HT29; type: cell-based; conditions: Homo sapiens, HT-29
Protocol: as §1

[8] = test system: Lovo tumor cell line (Colon); assay: Cell profiling, Lovo; type: cell-based; conditions: Homo sapiens
Protocol: as §1

[9] = test system: T98G tumor cell line (Glial Cells); assay: Cell profiling, T98G; type: cell-based; conditions: Homo sapiens
Protocol: as §1

[10] = test system: HCC1437 tumor cell line (Lung); assay: Cell profiling, HCC1437; type: cell-based
Protocol: as §1

[11] = test system: HCC44 tumor cell line (Lung); assay: Cell profiling, HCC44; type: cell-based; conditions: Homo sapiens
Protocol: as §1

[12] = test system: NCI-H226 tumor cell line (Lung); assay: Cell profiling, NCI-H226; type: cell-based; conditions: Homo sapiens
Protocol: as §1

[13] = test system: NCI-H460 tumor cell line (Lung); assay: Cell profiling, NCI-H460; type: cell-based; conditions: Homo sapiens
Protocol: as §1

[14] = test system: SKMES-1 tumor cell line (Lung); assay: Cell profiling, SKMES-1; type: cell-based; conditions: Homo sapiens, SK-MES-1; SKMES-1, Lung
Protocol: as §1

[15] = test system: BxPC3 tumor cell line (Pancreas); assay: Cell profiling, BxPC3; type: cell-based; conditions: Homo sapiens, BXPC-3
Protocol: as §1

[16] = test system: MiaPaca-2 tumor cell line (Pancreas); assay: Cell profiling, MiaPaca-2; type: cell-based; conditions: Homo sapiens, MIA PaCa-2; MiaPaca-2, Pancreas
Protocol: as §1

[17] = test system: Panc-1 tumor cell line (Pancreas); assay: Cell profiling, Panc-1; type: cell-based; conditions: Homo sapiens; Panc-1, Pancreas
Protocol: as §1

[18] = test system: PL45 tumor cell line (Pancreas); assay: Cell profiling, PL45; type: cell-based
Protocol: as §1

[19] = test system: SW1990 tumor cell line (Pancreas); assay: Cell profiling, SW1990; type: cell-based; conditions: Homo sapiens
Protocol: as §1

[20] = test system: DU145 tumor cell line (Prostate); assay: Cell profiling, DU145; type: cell-based; conditions: Homo sapiens, DU-145
Protocol: as §1

[21] = test system: A375 tumor cell line (Skin); assay: Cell profiling, A375; type: cell-based; conditions: Homo sapiens, A-375
Protocol: as §1

[22] = test system: G361 tumor cell line (Skin); assay: Cell profiling, G361; type: cell-based; conditions: Homo sapiens, G-361
Protocol: as §1

[23] = test system: SKMEL-5 tumor cell line (Skin); assay: Cell profiling, SKMEL-5; type: cell-based; conditions: Homo sapiens, SK-MEL-5; SKMEL-5, Skin
Protocol: as §1

[24] = test system: MiaPaca (pancreatic cancer) cells; assay: MiaPaca xenograft model, tumor free animals; type: in vivo, Athymic nude mice; conditions: 20 mg/kg, tail vein injection, 6 injections (days 9, 11, 14, 16, 18, 21), at 35 days post tumor cell injection, 7 mice/group
Protocol: Animals: Athymic nude mice, female, 6-7 weeks old, 20-25 g. Animals bearing with 180-400 mg tumors were selected for experiment. 7 mice/group.
Administration: Tail vein injection, 200 μL/mouse, to provide the dose indicated.
Dosing schedule: 6 injections were given on the days indicated post-tumor cell injection.
Controls: Vehicle, Compound J at 20 mg/kg.
Test Compound preparation: Compound J and all test compounds were dissolved in 50% Cremophore/EtOH (1:1) at 10 mg/mL as stock solution. Each compound solution was diluted with saline before injection to the concentration indicated.
Xenograft Model: MiaPaca (pancreatic cancer) cells
Dosing schedule: 6 injections were given on days 9, 11, 14, 16, 18 and 21 post-tumor cell injection.
Test Compounds: Example 23, Example 24, and Example 53, at 20 mg/kg.
For animals treated with the compound of Example 24 at 20 mg/kg, 7 of 7 animals were tumor free at 35 days post tumor cell injection.

[25] = test system: A2058 (human melanoma) cell line; assay: Cell viability assay (CELL-TITER-GLO), A2058; type: cell-based; conditions: Table 8 cell profiling, A2058, Skin
[26] = test system: U937 (human leukemic monocyte lymphoma) cell line; assay: Cell viability assay (CELL-TITER-GLO), U937; type: cell-based; conditions: U-937, Table 8 cell profiling, U937, Blood

CCC(O)(CC)C(=O)N[C@H]1Cc2ccc3c(c2)C24C5=C(N=C(O5)[C@H](C(C)C)NC1=O)c1ncc(o1)-c1c[nH]c5cccc(c15)-c1cccc2c1NC4O3 (stereo in doubt) [Example 24]
IC50 [1]: 0.105 µM | IC50 [2]: 0.062 µM | IC50 [3]: 234 nM | IC50 [4]: 29 nM | IC50 [5]: 144 nM | IC50 [6]: 515 nM | IC50 [7]: 90 nM | IC50 [8]: 150 nM | IC50 [9]: 67 nM | IC50 [10]: 195 nM | IC50 [11]: 36 nM | IC50 [12]: 104 nM | IC50 [13]: 242 nM | IC50 [14]: 470 nM | IC50 [15]: 213 nM | IC50 [16]: 111 nM | IC50 [17]: 288 nM | IC50 [18]: 113 nM | IC50 [19]: 360 nM | IC50 [20]: 57 nM | IC50 [21]: 162 nM | IC50 [22]: 275 nM | IC50 [23]: 70 nM | Tumor-free animals out of 7 [24]: 7 of 7 | Tumor-free animals out of 7 ([24]; listed as Ex. 24): 7/7 (35) | IC50 [25]: 93 nM | IC50 [26]: 44 nM

CC(C)[C@H](O)C(=O)N[C@H]1Cc2ccc3c(c2)[C@]24C5=C(N=C(O5)[C@H](C(C)C)NC1=O)c1ncc(o1)-c1c[nH]c5cccc(c15)-c1cccc2c1NC4O3 (stereo partly drawn) [Example 16, reference compound]
IC50 [1]: 0.043 µM | IC50 [2]: 0.034 µM | Tumor-free animals out of 7 [24]: 0/7 (35)

CCC(C)(O)C(=O)NC1Cc2ccc3c(c2)[C@]24C5=C(N=C(O5)[C@H](C(C)C)NC1=O)c1ncc(o1)-c1c[nH]c5cccc(c15)-c1cccc2c1NC4O3 (stereo partly drawn) [Example 23]
IC50 [1]: 0.124 µM | IC50 [2]: 0.156 µM | Tumor-free animals out of 7 [24]: 0/7 (35)

CC(C)[C@@H]1NC(=O)C(NC(=O)[C@H]2CCOC2)Cc2ccc3c(c2)[C@]24C5=C(N=C1O5)c1ncc(o1)-c1c[nH]c5cccc(c15)-c1cccc2c1NC4O3 (stereo partly drawn) [Example 53]
IC50 [1]: 0.209 µM | IC50 [2]: 0.078 µM | Tumor-free animals out of 7 [24]: 1/7 (35)

CC(C)[C@H](O)C(=O)NC1Cc2ccc3c(c2)C24C5=C(N=C(O5)[C@H](C(C)C)NC1=O)c1ncc(o1)-c1c[nH]c5c(O)ccc(c15)-c1cccc2c1N[C@H]4O3 (stereo partly drawn) [Example 77]
IC50 [1]: 0.07 µM | IC50 [2]: 0.052 µM

COc1ccc2c3c(c[nH]c13)-c1cnc(o1)-c1nc3oc1C14c5cc(ccc5O[C@@H]1Nc1c-2cccc14)CC(NC(=O)[C@@H](O)C(C)C)C(=O)N[C@H]3C(C)C (stereo partly drawn) [Example 78]
IC50 [1]: 0.042 µM | IC50 [2]: 0.051 µM

COc1ccc2c3c(cn(C)c13)-c1cnc(o1)-c1nc3oc1C14c5cc(ccc5O[C@@H]1Nc1c-2cccc14)CC(NC(=O)[C@@H](O)C(C)C)C(=O)N[C@H]3C(C)C (stereo partly drawn) [Example 79]
IC50 [1]: 0.022 µM | IC50 [2]: 0.027 µM

CCC(O)(CC)C(=O)N[C@H]1Cc2ccc3c(c2)C24C5=C(N=C(O5)[C@H](C(C)C)NC1=O)c1ncc(o1)-c1c[nH]c5c(O)ccc(c15)-c1cccc2c1N[C@H]4O3 (stereo partly drawn) [Example 80]
IC50 [1]: 0.183 µM | IC50 [2]: 0.182 µM

CCC(O)(CC)C(=O)N[C@H]1Cc2ccc3c(c2)C24C5=C(N=C(O5)[C@H](C(C)C)NC1=O)c1ncc(o1)-c1c[nH]c5c(OC)ccc(c15)-c1cccc2c1N[C@H]4O3 (stereo partly drawn) [Example 81]
IC50 [1]: 0.123 µM | IC50 [2]: 0.054 µM

CCC(O)(CC)C(=O)N[C@H]1Cc2ccc3c(c2)C24C5=C(N=C(O5)[C@H](C(C)C)NC1=O)c1ncc(o1)-c1cn(C)c5c(OC)ccc(c15)-c1cccc2c1N[C@H]4O3 (stereo partly drawn) [Example 82]
IC50 [1]: 0.029 µM | IC50 [2]: 0.021 µM

CC(C)[C@H](O)C(=O)N[C@H]1Cc2ccc3c(c2)C24C5=C(N=C(O5)[C@H](C(C)C)NC1=O)c1nc(Cl)c(o1)-c1c(Cl)[nH]c5cccc(c15)-c1cc(Cl)cc2c1N[C@H]4O3 (stereo partly drawn) [Example 83]
IC50 [1]: 0.63 µM | IC50 [2]: 0.693 µM

CC(C)[C@H](O)C(=O)N[C@H]1Cc2ccc3c(c2)C24C5=C(N=C(O5)[C@H](C(C)C)NC1=O)c1ncc(o1)-c1c[nH]c5cccc(c15)-c1cc(Br)cc2c1N[C@H]4O3 (stereo partly drawn) [Example 84]
IC50 [1]: 0.51 µM | IC50 [2]: 0.648 µM

CC(C)[C@H](O)C(=O)N[C@H]1Cc2ccc3c(c2)C24C5=C(N=C(O5)[C@H](C(C)C)NC1=O)c1nc(Cl)c(o1)-c1c[nH]c5cccc(c15)-c1cccc2c1N[C@H]4O3 (stereo partly drawn) [Example 86]
IC50 [1]: 0.081 µM | IC50 [2]: 0.084 µM

CCC(O)(CC)C(=O)N[C@H]1Cc2ccc3c(c2)C24C5=C(N=C(O5)[C@H](C(C)C)NC1=O)c1ncc(o1)-c1c[nH]c5cccc(c15)-c1cc(Br)cc2c1N[C@H]4O3 (stereo partly drawn) [Example 87]
IC50 [1]: > 1 µM | IC50 [2]: > 1 µM

CCC(O)(CC)C(=O)N[C@H]1Cc2ccc3c(c2)C24C5=C(N=C(O5)[C@H](C(C)C)NC1=O)c1nc(Br)c(o1)-c1c[nH]c5cccc(c15)-c1cc(Br)cc2c1N[C@H]4O3 (stereo partly drawn) [Example 88]
IC50 [1]: > 1 µM | IC50 [2]: > 1 µM

CC(C)[C@H](O)C(=O)N[C@H]1Cc2ccc3c(c2)C24C5=C(N=C(O5)[C@H](C(C)C)NC1=O)c1nc(Br)c(o1)-c1c(Cl)[nH]c5cccc(c15)-c1cccc2c1N[C@H]4O3 (stereo partly drawn) [Example 89]
IC50 [1]: 0.158 µM | IC50 [2]: 0.079 µM

CCC(O)(CC)C(=O)NC1Cc2ccc3c(c2)C24C5=C(N=C(O5)[C@H](C(C)C)NC1=O)c1nc(Cl)c(o1)-c1c(Cl)[nH]c5cccc(c15)-c1cccc2c1N[C@H]4O3 (stereo partly drawn) [Example 90]
IC50 [1]: 0.375 µM | IC50 [2]: 0.302 µM

CCC(O)(CC)C(=O)NC1Cc2ccc3c(c2)C24C5=C(N=C(O5)[C@H](C(C)C)NC1=O)c1nc(Cl)c(o1)-c1c(Cl)[nH]c5cccc(c15)-c1cc(Cl)cc2c1N[C@H]4O3 (stereo partly drawn) [Example 91]
IC50 [1]: > 1 µM | IC50 [2]: > 1 µM

CC(C)[C@@H]1NC(=O)C(NC(C[N+](=O)[O-])C(F)(F)F)Cc2ccc3c(c2)C24C5=C(N=C1O5)c1ncc(o1)-c1c[nH]c5cccc(c15)-c1cccc2c1N[C@H]4O3 (stereo partly drawn) [Example 92]
IC50 [1]: > 1 µM | IC50 [2]: 0.75 µM
